Data set [1] relates to RAW264.7. The data set is described as follows: Anti-inflammatory activity in mouse RAW264.7 cells assessed as inhibition of LPS-induced iNOS protein expression at 10 uM incubated for 24 hrs by Western blot analysis. The format is functional, cell-based. Background: Immunoblotting shows a protein as a band on a membrane.
Data set [2] in a line: Toxicity in mouse RAW264.7 cells assessed as reduction in cell vaibility at 10 uM. The format is cell-based. The following applies: raw264.7, 10 µM.
The subject of data set [3] is RAW264.7. Nature of the data set: Anti-inflammatory activity in mouse RAW264.7 cells assessed as inhibition of LPS-induced NO production at 10 uM. The format is functional, cell-based.
Data set [4] concerns RAW264.7. The data set is described as follows: Anti-inflammatory activity in mouse RAW264.7 cells assessed as inhibition of LPS-induced p-NFkappaB protein expression at 10 uM incubated for 24 hrs by Western blot analysis. The format is functional, cell-based.
Data set [5] deals with RAW264.7. The data set is described as follows: Anti-inflammatory activity in mouse RAW264.7 cells assessed as inhibition of LPS-induced NO production at 20 uM. The format is functional, cell-based.
For data set [6], the system named is RAW264.7. The data set is described as follows: Anti-inflammatory activity in mouse RAW264.7 cells assessed as inhibition of LPS-induced iNOS protein expression at 1 to 20 uM incubated for 24 hrs by Western blot analysis. The note with it: dose 1-20 µM, DDE = dose-dependent effect. The format is functional, cell-based.
A short description of data set [7]: Toxicity in mouse RAW264.7 cells assessed as reduction in cell vaibility at 20 uM incubated for 24 hrs. The format is cell-based. The note with it: raw264.7, 24 h.
Data set [8] relates to RAW264.7. The data set is described as follows: Anti-inflammatory activity in mouse RAW264.7 cells assessed as inhibition of LPS-induced NO production at 1 to 20 uM incubated for 24 hrs. The format is functional, cell-based. The note with it: dose 1-20 µM, DDE = dose-dependent effect.

Calls of active or inactive are those of the source. The calls are words filed in the database; no cut-off is given here.

Regarding `C/C=C/C(=O)Oc1c(C)cc(C(=O)/C=C/C)c(O)c1C`, the inhibition result in data set [1] and in data set [3] was “Active” each time. Besides, in data set [2], the Activity result is listed as “Non-Toxic”.
Consider `C/C=C/C(=O)c1cc(C)c(OC)c(C)c1OC`, for which the inhibition result in data set [1] and in data set [3] was “Active” each time. The Activity result in data set [2] is “Non-Toxic”.
In the case of `COc1cc(OC)c(C(=O)/C=C/c2ccccc2)cc1C`, the inhibition entry in data set [1] and in data set [3] was “Active” in each case. For the same molecule, the Activity result in data set [2] is “Non-Toxic”.
Turning to `CC(C)=CC(=O)Oc1c(C)cc(C(=O)C=C(C)C)c(O)c1C`, the inhibition entry in data set [1] and in data set [3] was “Active” in each case. Besides, in data set [2], the Activity result is “Non-Toxic”.
Turning to `COc1cc(O)c(C(=O)/C=C/c2ccc(F)cc2)cc1C`, the inhibition entry in data set [1] and in data set [3] was “Active” throughout. Besides, in data set [2], the Activity result is on record as “Non-Toxic”.
`Cc1ccc(OC(=O)/C=C/c2ccc(Cl)cc2)c(C)c1OC(=O)/C=C/c1ccc(Cl)cc1`: the inhibition result in data set [1] and in data set [3] was “Active” throughout. In data set [2], the Activity result was “Non-Toxic”.
For `Cc1cc(C(=O)/C=C/c2ccc(Cl)cc2)c(O)c(C)c1OC(=O)/C=C/c1ccc(Cl)cc1`, the inhibition entry in data set [1] was “Active”. In addition, in data set [2], the Activity result is listed as “Non-Toxic”.
On to `CC(C)=CC(=O)Oc1ccc(C)c(OC(=O)C=C(C)C)c1C`, for which the Activity entry in data set [2] was “Non-Toxic”. The inhibition result in data set [4] is “Active”.
In the case of `C[C@]12CCC(=O)C=C1CC[C@@H]1[C@@H]2[C@@H](O)C[C@@]2(C)[C@H]1CC[C@]2(O)C(=O)CO`, the inhibition result in data set [5] was “Active”.
For the molecule `COc1cc(O)c(C(=O)/C=C/c2ccccc2)cc1C`, the inhibition entry in data set [1] and in data set [3] was “Active” each time. The Activity entry in data set [2] was “Non-Toxic”.
As for `Cc1cc(C(=O)/C=C/c2ccc(F)cc2)c(O)c(C)c1O`, the inhibition entry in data set [6] and in data set [8] was “Dde” each time. Also, the Activity entry in data set [7] and in data set [2] was “Non-Toxic” throughout. Further, the inhibition result in data set [1] and in data set [3] was “Active” throughout.
Turning to `COc1cc(OC)c(C(=O)/C=C/c2ccc(F)cc2)cc1C`, the inhibition result in data set [1] and in data set [3] was “Active” each time. Moreover, the Activity result in data set [2] is listed as “Non-Toxic”.
On to `COc1cc(/C=C/C(=O)c2cc(C)c(O)c(C)c2O)cc(OC)c1OC`, for which the inhibition entry in data set [6] and in data set [8] was “Dde” each time. Besides, the Activity entry in data set [7] and in data set [2] was “Non-Toxic” throughout. The inhibition result in data set [1] and in data set [3] was “Active” each time.
For `COc1ccc(/C=C/C(=O)c2cc(C)c(O)c(C)c2O)cc1`, the inhibition result in data set [1] and in data set [3] was “Active” in each case. In data set [2], the Activity entry was “Non-Toxic”.
Regarding `Cc1cc(C(=O)/C=C/c2ccc(F)cc2)c(O)c(C)c1OC(=O)/C=C/c1ccc(F)cc1`, in data set [1], the inhibition result was “Active”. Also, the Activity result in data set [2] was “Non-Toxic”.
With `C/C=C/C=C/C(=O)c1cc(C)c(O)c(C)c1O`, the Activity result in data set [2] is on record as “Non-Toxic”. Moreover, the inhibition entry in data set [4] and in data set [3] was “Active” in each case.
With `C/C=C/C(=O)c1cc(C)c(OC)cc1OC`, the inhibition entry in data set [1] and in data set [3] was “Active” in each case. Moreover, in data set [2], the Activity entry was “Non-Toxic”.
In the case of `Cc1ccc(/C=C/C(=O)c2cc(C)c(O)c(C)c2O)cc1`, the inhibition result in data set [1] and in data set [3] was “Active” throughout. For the same molecule, the Activity result in data set [2] is listed as “Non-Toxic”.
As for `COc1cc(OC)c(C(=O)/C=C/c2cc(OC)c(OC)c(OC)c2)cc1C`, the inhibition result in data set [1] and in data set [3] was “Active” in each case. In data set [2], the Activity result is given as “Non-Toxic”.
On to `Cc1cc(C(=O)/C=C/c2ccccc2)c(O)cc1O`, for which the inhibition result in data set [1] and in data set [3] was “Active” each time. Besides, the Activity entry in data set [2] was “Non-Toxic”.
For `Cc1cc(C(=O)CCc2ccccc2)c(O)c(C)c1O`, the Activity result in data set [2] is “Non-Toxic”. Moreover, in data set [4], the inhibition entry is “Active”.
For the molecule `C/C=C/C(=O)c1cc(C)c(O)c(C)c1O`, the inhibition result in data set [1] and in data set [3] was “Active” throughout. Also, the Activity entry in data set [2] is reported as “Non-Toxic”.
Consider `COc1cc(/C=C/C(=O)CC(=O)/C=C/c2ccc(O)c(OC)c2)ccc1O`, for which the inhibition result in data set [5] was “Active”.
With `C/C=C/C(=O)c1cc(C)c(O)cc1O`, the inhibition result in data set [1] and in data set [3] was “Active” each time. The Activity entry in data set [2] is recorded as “Non-Toxic”.
`C/C=C/C=C/C(=O)Oc1ccc(C)c(OC(=O)/C=C/C=C/C)c1C`: the Activity entry in data set [2] is “Non-Toxic”.
As to `Cc1cc(C(=O)/C=C/c2ccc(F)cc2)c(O)cc1O`, the inhibition result in data set [1] and in data set [3] was “Active” each time. For the same molecule, in data set [2], the Activity entry is “Non-Toxic”.
For the molecule `C/C=C/C=C/C(=O)Oc1c(C)cc(C(=O)/C=C/C=C/C)c(O)c1C`, the inhibition result in data set [1] and in data set [3] was “Active” in each case. Besides, in data set [2], the Activity result is on record as “Non-Toxic”.
On to `Cc1cc(C(=O)/C=C/c2ccc3c(c2)OCO3)c(O)c(C)c1O`, for which the inhibition result in data set [1] was “Active”. Besides, in data set [2], the Activity result is reported as “Non-Toxic”.
As to `COc1ccc(/C=C/C(=O)c2cc(C)c(OC)cc2OC)cc1`, the Activity entry in data set [2] is given as “Non-Toxic”.
Consider `COc1cc(/C=C/C(=O)c2cc(C)c(OC)c(C)c2OC)cc(OC)c1OC`, for which the inhibition entry in data set [1] and in data set [3] was “Active” in each case. The Activity entry in data set [2] is “Non-Toxic”.
Turning to `Cc1cc(C(=O)/C=C/c2ccccc2)c(O)c(C)c1O`, the inhibition result in data set [1], in data set [4] and in data set [3] was “Active” each time. Moreover, the Activity result in data set [2] is “Non-Toxic”.

(Values after ChEMBL document CHEMBL5143558, “Synthesis of sorbicillinoid analogues with anti-inflammation activities” (Bioorg Med Chem, 2022).)
